Laboratory results from patent US20130295100A1, “MARKERS FOR ACUTE KIDNEY INJURY AND USES THEREOF” (OSPEDALE SAN RAFFAELE S.R.L., priority 2010, published 2013).

Assays:
[1] = test system: glomerular podocytes (nephrin, synaptopodin expression); assay: Western blot of cultured rat glomerular podocytes incubated with ouabain; format: cell-based; conditions: 10^−9 M ouabain for 4 days, vs control group
Experimental: Kidneys were taken from 7-10 day-old rats and glomerular podocytes were isolated and cultured as described.^30 Cell characterization was performed using markers of podocytes (nephrin, podocin, synaptopodin), epithelial (cytokeratin), smooth muscle (a-SMC) and endothelial cells (CD31). Podocytes were incubated in the absence or presence of 10^−9 M ouabain for 4 days and analyzed by Western blotting.
(§1) Samples were analyzed by Western blotting using specific antibodies against podocyte markers, such as nephrin (Santa Cruz Biotechnology), podocin (Sigma-Aldrich), synaptopodin (Progen Biotechnik), ZO-1 (Invitrogen) as described in Ferrandi M, et al (J Mol Med 2010; 88:203-217).^30 Actin (Sigma-Aldrich) was used for normalization.

[2] = test system: nephrin, synaptopodin (podocyte proteins); assay: Western blot of renal microsomes from ouabain-infused rats; format: in vivo, rat; conditions: OHR vs control rats
Experimental: Renal microsomes were prepared from ouabain-infused rats and saline controls as described^30 and analyzed by Western blotting.
as §1

[3] = test system: normotensive Sprague-Dawley rats; assay: Chronic subcutaneous ouabain infusion in rats (OHR): blood pressure and renal function; format: in vivo, rat; conditions: 8 weeks
Experimental: Care and husbandry of rats complied with the European Directives No. 86/609 and with the Italian Law (DL116, Jan. 27, 1992). The authorization for animal use in Prassis Sigma-Tau laboratories was obtained from the Italian Health Authority. Ouabain hypertensive rats (OHR) were obtained by subcutaneous ouabain infusion (Sprague-Dawley rats, 15 μg/kg/day ouabain from Sigma-Aldrich, n=7) with osmotic mini-pumps for 8 weeks as described.^1,2 Normotensive control rats received sterile saline (n=7). Systolic blood pressure and heart rate were recorded weekly in conscious rats by tail-cuff plethysmography.
Rats were housed in single metabolic cages and 24 h-urine samples were collected and analyzed for total protein and creatinine excretion (kits from Sentinel Diagnostics, Milan, Italy) as described in Doi M, et al.^29 At sacrifice, rat plasma was collected for creatinine determination.

[4] = test system: nephrin, synaptopodin (podocyte proteins); assay: Immunofluorescence of podocyte proteins in kidney sections of ouabain-infused rats; format: in vivo, rat; conditions: OHR vs control rats
Experimental: Immunofluorescence was performed on rat kidney sections by using anti-nephrin and anti-synaptopodin antibodies as described.^30

hypertension in patients = conditions: reference 34; cited from earlier work
ouabain antiserum = conditions: radioimmunoassay for endogenous ouabain, as previously described; cited from earlier work
[5] = ouabain 15 μg/kg/day s.c., OHR vs saline controls, p<0.05

Q: Which results are given for `C[C@@H]1O[C@@H](O[C@H]2C[C@@H](O)[C@]3(CO)[C@H]4[C@H](O)C[C@]5(C)[C@@H](C6=CC(=O)OC6)CC[C@]5(O)[C@@H]4CC[C@]3(O)C2)[C@H](O)[C@H](O)[C@H]1O` [ouabain]?
A: nephrin expression in podocytes, normalized for actin [1]: decreased expression; nephrin expression in renal microsomes, normalized for actin [2]: reduced expression; synaptopodin expression in renal microsomes ([2]; data not shown): but not of synaptopodin; systolic blood pressure (SBP) ([3]; ouabain 15 μg/kg/day s.c. by osmotic mini-pump, OHR vs saline controls, n=7): significantly raised; urinary creatinine ([3]; ouabain 15 μg/kg/day s.c., 24 h urine, OHR): 33.8±1.4 mg/24 h; reduction of creatinine clearance vs controls ([3]; ouabain 15 μg/kg/day s.c., OHR vs saline controls, p<0.02): −18%; increase of plasma creatinine vs controls [3, 5]: +14%; urinary protein excretion, change vs controls [3, 5]: +54%; synaptopodin staining in kidney sections ([4]; data not shown): but not for synaptopodin; nephrin staining in kidney sections ([4]; three rats per group): significant reduction of staining

Q: For `C[C@]12CC[C@H](O)C[C@H]1CC[C@@H]1[C@@H]2CC[C@]2(C)[C@@](O)(c3ccoc3)CC[C@]12O` [rostafuroxin], which “antihypertensive activity in patients” value (hypertension in patients) is on record?
A: The value was “has been shown to have antihypertensive activity”.

Q: Which “cross-reactivity of ouabain antiserum” value (ouabain antiserum) does the source give for `CC(=O)S[C@@H]1CC2=CC(=O)CC[C@]2(C)[C@H]2CC[C@@]3(C)[C@@H](CC[C@@]34CCC(=O)O4)[C@H]12` [spironolactone] here?
A: The value was under 0.01%.

Q: For `C[C@H]1O[C@@H](O[C@H]2[C@@H](O)C[C@H](O[C@H]3[C@@H](O)C[C@H](O[C@H]4CC[C@@]5(C)[C@H](CC[C@@H]6[C@@H]5C[C@@H](O)[C@]5(C)[C@@H](C7=CC(=O)OC7)CC[C@]65O)C4)O[C@@H]3C)O[C@@H]2C)C[C@H](O)[C@@H]1O` [digoxin], which “cross-reactivity of ouabain antiserum” value (ouabain antiserum) is on record?
A: The value was “approximately 0.42%”.
